Assay results from paper PMC13408523, “Psoralen and Seselin Stabilize the α-helix Structure in Lysozyme and Inhibit the α-helix to β-sheet Exchange: An Efficient Anti-Amyloidogenic Mechanism” (Advanced Pharmaceutical Bulletin, 2025).
pKd: −log10 of the molar value. Read-outs that look alike come from different tables or passages of the source.

Biological target: T1, hen egg white lysozyme (HEWL) (Gallus gallus, UniProt P00698)
T1 construct: gene LYZ
Assay: SPR (HEWL amine-coupled on CMD gold chip, […]°C); intrinsic fluorescence quenching
Type: binding

T1 sequence (P00698 19-147): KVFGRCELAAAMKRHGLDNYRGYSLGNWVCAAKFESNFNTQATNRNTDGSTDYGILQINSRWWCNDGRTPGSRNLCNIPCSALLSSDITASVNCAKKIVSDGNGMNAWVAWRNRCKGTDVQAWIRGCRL

Row | pKd (read-out: Kd) | Compound | pKd
1 | – | O=c1ccc2cc3ccoc3cc2o1 [psoralen] | 5.03
2 | 4.33 | CC1(C)C=Cc2c(ccc3ccc(=O)oc23)O1 [seselin] | –
